One assay relates to Leukotriene-synthesis. The assay can be described thus: Inhibition of Leukotriene-synthesis Induced by FMLP/merthiolate of Human Polymorphonuclear Leukocytes. It is filed as cell-based. The settings on record: Leukocyte, 5 minutes preincubation at 37° C., centrifuged and resuspended in HBSS before merthiolate (40 μM) and FMLP (10^-7 M), read-out: IC50-value of the reversible inhibitory action. How it is done: (§1) Human granulocytes were isolated by dextran sedimentation and a Percoll gradient method and suspended in HBSS (Hanks buffered saline solution) at 1×10^7 cells/ml. The cells were incubated in the presence of a compound according to the invention or a solvent (ethanol and/or dimethyl sulfoxide) at 37° C. for 2 minutes, then with merthiolate (sodium ethylmercurithiosalicylate; 40 μM) for 2 minutes and thereafter with FMLP (formyl-methionyl-leucylphenylalanine; 10^-7 M) for 15 minutes. After solid phase extraction, the metabolites of arachidonic acid 5-HETE, LTB4, 6-trans-LTB4 -isomers, 20-OH-LTB4 and 20-COOH-LTB4 were identified by RP-HPLC (M. Haurand and L. Flohe in Biochem. Pharmacol. 38, 2129 to 2137 (1989)).
To investigate the reversibility of the inhibitory action, the cells were incubated with a compound according to the invention or a solvent (ethanol and/or dimethyl sulfoxide) at 37° C. for 5 minutes, centrifuged at 300 × g for 5 minutes, and resuspended in 2 ml of HBSS. Then the cells were incubated with merthiolate (40 μM) at 37° C. for 2 minutes and thereafter with FMLP (10^-7 M) for 15 minutes. The IC50 -value of the reversible inhibitory action was 2 μmolar when the compound prepared according to Example 1 was used.

A further assay relates to 5-lipoxygenase. The assay can be described thus: Inhibition of 5-lipoxygenase in Rat Blood After Oral Administration (ex vivo iLTB4-formation). Conditions: 21.5 mg/kg oral, male Wistar rats, one hour after administration. On the procedure:
The bioavailability of the compounds of formula I as 5-lipoxygenase inhibitors was characterized by means of an ex vivo biochemical assay method described by Tateson et al. in Brit. J. Pharmacol. 94, 528 (1988): A compound of formula I was orally administered to male rats (Wistar strain) at a dose of 21.5 mg/kg. After lethal CO2 -narcosis one hour after administration, the rats were bled by heart puncture with added heparin as an anticoagulant. Aliquots of the whole blood were incubated at 37° C. for 30 minutes in a water bath with calcium ionophore A 23 187 at an end concentration of 15 μg/ml. At the end of the incubation, the samples were centrifuged, and the concentration of the immunoreactive LTB4 (iLTB4) in aliquots of cell-free plasma was determined by radioimmunoassay (3H-LTB4 -RIA, Amersham). To enable calculation of the inhibition in percent of ex vivo iLTB4 -formation in whole rat blood treated with a compound according to the invention, rats orally treated with an appropriate vehicle solution were included in all experiments, and aliquots of their blood were run in parallel and were processed in the same way as described. The average iLTB4 -content of the plasma of the vehicletreated rats served as a 100% value. The activity in percent of the ex vivo iLTB4 -formation after oral administration of a compound according to the invention was calculated by dividing the average value of the iLTB4 -contents in ng iLTB4 /ml of the group treated with a compound according to the invention by the average value of the iLTB4 -contents in ng iLTB4 /ml of the vehicle treated group and subsequent multiplication by a factor of 100. The respective inhibition in percent was calculated by subtracting the activity in percent from 100.

The next assay concerns the target T1, 12-lipoxygenase (Homo sapiens, UniProt P18054).
T1 sequence (P18054 1-663): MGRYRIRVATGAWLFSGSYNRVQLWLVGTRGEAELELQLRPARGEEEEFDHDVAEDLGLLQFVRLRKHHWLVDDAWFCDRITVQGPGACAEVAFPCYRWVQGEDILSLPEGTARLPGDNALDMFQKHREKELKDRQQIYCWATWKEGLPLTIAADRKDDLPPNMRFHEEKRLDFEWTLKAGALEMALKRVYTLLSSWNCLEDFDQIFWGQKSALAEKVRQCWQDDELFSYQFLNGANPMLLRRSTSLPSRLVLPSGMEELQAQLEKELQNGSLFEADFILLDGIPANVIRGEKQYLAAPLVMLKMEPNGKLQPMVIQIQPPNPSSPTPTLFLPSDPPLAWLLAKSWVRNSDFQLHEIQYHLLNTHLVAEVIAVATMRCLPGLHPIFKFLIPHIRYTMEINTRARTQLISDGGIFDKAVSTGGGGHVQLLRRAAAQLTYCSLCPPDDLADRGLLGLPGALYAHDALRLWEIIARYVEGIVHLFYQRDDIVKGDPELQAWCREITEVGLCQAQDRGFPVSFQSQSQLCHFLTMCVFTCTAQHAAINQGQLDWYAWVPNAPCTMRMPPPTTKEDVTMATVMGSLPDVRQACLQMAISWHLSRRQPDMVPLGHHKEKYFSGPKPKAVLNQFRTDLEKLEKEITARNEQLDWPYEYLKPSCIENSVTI
The assay can be described thus: Inhibition of 12-HETE- and 5S,12S-DiHETE-synthesis induced by FMLP/merthiolate of human polymorphonuclear leukocytes and thrombocytes. The class given is cell-based. The settings on record: coincubation of human granulocytes and thrombocytes, read-out: IC50-value of the inhibitory action on 12-lipoxygenase. How it is done: as §1
Coincubations of human granulocytes and thrombocytes were carried out and investigated for inhibition of leukotriene-synthesis induced by FMLP/merthiolate. 12-HETE and 5S, 12S-DiHETE were additionally included into the evaluation. The IC50 -value of the inhibitory action on 12-lipoxygenase was 5 μmolar when the compound prepared according to Example 1 was used.

Assay [1] deals with bronchoconstriction elicited by ovalbumin. The assay can be described thus: Allergen-induced bronchoconstriction in guinea pigs (Konzett-Rossler). It is filed as in vivo, guinea pig. The settings on record: Cavia porcellus, 1 h; oral, 60 minutes before ovalbumin (0.2 mg/kg intravenous); passively sensitized guinea pigs; read-out: ED40-Value (40% average inhibition of the bronchoconstriction elicited by ovalbumin). How it is done: The anti-asthmatic effect of compounds according to the invention was tested in anesthetized and ventilated guinea pigs. To induce an asthmatic reaction, the animals were passively sensitized by a single intraperitoneal injection of anti-ovalbumin serum. After 48 hours, the asthmatic reaction was elicited by intravenous challenge with 0.2 mg/kg of ovalbumin. The immediately resulting bronchoconstriction was measured as an increase in intratracheal pressure. Effects caused by histamine, serotonin and sympathic counterreaction were eliminated by intravenous pretreatment with 2.15 mg/kg of mepyramine, 46.4 μg/kg of propranolol, 4.64 mg/kg of atropine and 1 mg/kg of methysergide, all administered 5 minutes before challenge. Compounds according to the invention were administered orally 60 minutes before the administration of ovalbumin. The following […] for the inhibition of the bronchoconstriction elicited by ovalbumin, i.e. the effective doses causing a 40% average inhibition of the bronchoconstriction, were determined: […]

pIC50: −log10 of the molar value.

One may read the pIC50 as the negative decadic logarithm of the IC50, by convention in mol/L. Turning to `CC(=O)N(O)Cc1ccc(C(O)C#Cc2ccccc2)cc1` (racemic) [Example 1, N-Hydroxy-N-[4-[1-hydroxy-3-phenyl-prop-2-yn-1-yl]benzyl]acetamide], the results for the negative logarithm of the IC50 (pIC50) in the assay on Leukotriene-synthesis and on 12-lipoxygenase were 5.70 and 5.30, respectively. In addition, the “Inhibition [%] of ex vivo iLTB4-formation” value in the assay on 5-lipoxygenase stood at 93%. In assay [1], the ED40 worked out at 17 mg/kg.

Source of the values: patent publication US5326902A, “Oxyalkyne compounds, pharmaceutical compositions containing them and processes for preparing such compounds and compositions” (Gruenenthal GmbH, priority 1992, dated 1994).
